Literature values, collected in US20250195440A1, “PHARMACEUTICAL FORMULATION COMPRISING GLUCOKINASE ACTIVATOR AND USE THEREOF” (Hua Medicine USA Inc., priority 2023, published 2025).

How the values were obtained:
[1] = test system: glucose-stimulated GLP-1 secretion; details: patients with type II diabetes and obesity; Dorzagliatin alone
[2] = test system: esterase enzymes in gastrointestinal tract; details: with esterase enzymes in gastrointestinal tract

| Structure (SMILES) | Impaired glucose-stimulated GLP-1 secretion [1] | Conversion into active Dorzagliatin [2] |
| --- | --- | --- |
| CC(C)C[C@@H](C(=O)Nc1ccn(C[C@@H](O)CO)n1)N1CC(Oc2ccccc2Cl)=CC1=O [Dorzagliatin, (S)-2-[4-(2-chloro-phenoxy)-2-oxo-2,5-dihydro-pyrrol-1-yl]-4-methyl-pentanoic acid [1-((R)-2,3-dihydroxy-propyl)-1H-pyrazol-3-yl]-amide] | improved | – |
| CC(C)C[C@@H](C(=O)Nc1ccn(C[C@@H](O)COC(=O)c2cccnc2)n1)N1CC(Oc2ccccc2Cl)=CC1=O [compound of formula (I)] | – | quickly and completely converted |
